Results from patent publication US10934302B1, “SHP2 phosphatase inhibitors and methods of use thereof” (Relay Therapeutics, Inc., priority 2018, dated 2021).

target: SHP2 (Homo sapiens (Human), UniProt Q06124); assay: SHP2 allosteric inhibition assay (DiFMUP prompt fluorescence); assay type: biochemical; settings: 0.25 nM SHP2 activated with 0.5 μM peptide IRS1_pY1172(dPEG8)pY1222; substrate DiFMUP
Sequence (Q06124 whole entry): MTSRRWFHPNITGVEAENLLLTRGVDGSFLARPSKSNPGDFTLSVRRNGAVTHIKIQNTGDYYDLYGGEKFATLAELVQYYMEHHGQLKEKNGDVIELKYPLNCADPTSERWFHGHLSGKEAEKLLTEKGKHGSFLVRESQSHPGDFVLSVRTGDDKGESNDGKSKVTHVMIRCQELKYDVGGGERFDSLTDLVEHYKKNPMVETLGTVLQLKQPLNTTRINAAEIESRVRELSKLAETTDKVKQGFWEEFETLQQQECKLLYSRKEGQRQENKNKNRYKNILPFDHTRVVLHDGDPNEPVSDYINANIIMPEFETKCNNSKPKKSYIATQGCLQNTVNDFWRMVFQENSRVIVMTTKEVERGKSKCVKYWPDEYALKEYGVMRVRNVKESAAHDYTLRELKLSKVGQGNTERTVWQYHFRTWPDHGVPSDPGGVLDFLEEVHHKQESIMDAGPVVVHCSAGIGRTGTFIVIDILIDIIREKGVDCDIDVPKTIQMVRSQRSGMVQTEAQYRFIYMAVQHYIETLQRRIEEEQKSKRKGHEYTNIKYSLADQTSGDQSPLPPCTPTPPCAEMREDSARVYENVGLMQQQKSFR

| Compound | IC50 |
| --- | --- |
| Cn1c(N2CCC3(CC2)Cc2ccccc2[C@H]3N)ncc(N2CCCc3ccccc32)c1=O [Example 205] | 50 to 1000 nM |
| Cc1nc2c(N3CCCCC3)n[nH]c2nc1N1CCC2(CC1)Oc1cc(F)ccc1[C@H]2N [Example 278, (3R)-6-fluoro-1′-[5-methyl-3-(piperidin-1-yl)-1H-Pyrazolo[3,4-b]pyrazin-6-yl]-3H-spiro[1-benzofuran-2,4′-piperidin]-3-amine] | ≤ 50 nM |
| Cc1nc2c(N3CCCc4c3ccn(C)c4=O)n[nH]c2nc1N1CCC2(CC1)Cc1ccccc1[C@H]2N [Example 247, 1-{6-[(3S)-3-amino-1,3-dihydrospiro[indene-2,4′-piperidin]-1′-yl]-5-methyl-1H-pyrazolo[3,4-b]pyrazin-3-yl}-6-methyl-1,2,3,4,5,6-hexahydro-1,6-naphthyridin-5-one] | 1000 to 10000 nM |
| CC(=O)N1CCN(c2n[nH]c3nc(N4CCC5(CC4)Cc4ccccc4[C@H]5N)c(CO)nc23)c2ccccc21 [Example 102] | ≤ 50 nM |
| Nc1nccc(Oc2n[nH]c3nc(N4CCC5(CC4)Cc4ccccc4[C@H]5N)cnc23)c1Cl (single isomer, unassigned) [Example 137] | ≤ 50 nM |
| N[C@@H]1c2ccccc2C[C@@]12CC=C(c1cnc3c(N4CCCc5ncccc54)n[nH]c3n1)CC2 (single isomer, unassigned) [Example 173] | > 10000 nM |
| N[C@@H]1c2ccccc2CC12CCN(c1cnc3ccccc3n1)CC2 [Example 179] | ≤ 50 nM |
| COc1cccc(-n2ccc(C(=O)N3CCC4(CC3)Cc3ccccc3[C@H]4N)n2)c1 [Example 287, (1S)-1′-[1-(3-methoxyphenyl)-1H-pyrazole-3-carbonyl]-1,3-dihydrospiro[indene-2,4′-piperidin]-1-amine] | ≤ 50 nM |
| Cn1cc(-c2ccc3c(n2)CCCN3c2n[nH]c3nc(N4CCC5(CC4)Cc4ccc(F)cc4[C@H]5N)cnc23)cn1 [Example 40] | > 10000 nM |
| N[C@@H]1c2ccccc2OC12CCN(c1cnc(SCC3CC3)cn1)CC2 [Example 273, (R)-1′-(5-((cyclopropylmethyl)thio)pyrazin-2-yl)-3H-spiro[benzofuran-2,4′-piperidin]-3-amine] | ≤ 50 nM |
| Nc1nccc(Sc2ccc(N3CCC4(CC3)Oc3ccc(F)cc3[C@H]4N)cn2)c1Cl [Example 225] | > 10000 nM |
| Cc1nc(N2CCC3(CC2)Cc2c(F)cccc2[C@H]3N)c(CO)nc1-c1cccc(Cl)c1Cl [Example 269, (S)-(3-(1-amino-4-fluoro-1,3-dihydrospiro[indene-2,4′-piperidin]-1′-yl)-6-(2,3-dichlorophenyl)-5-methylpyrazin-2-yl)methanol] | ≤ 50 nM |
| Cn1cc2c(N3CCC4(CC3)Cc3ccccc3[C@H]4N)ncnc2n1 [Example 182] | > 10000 nM |
| N[C@@H]1c2ccccc2CC12CCN(c1cn3ccnc3cn1)CC2 [Example 169, (3S)-1′-{imidazo[1,2-a]pyrazin-6-yl}-1,3-dihydrospiro[indene-2,4′-piperidin]-3-amine] | 1000 to 10000 nM |
| N[C@@H]1c2ccccc2CC12CCN(c1ncc(SCC3CC3)nc1CO)CC2 [Example 244, (S)-(3-(1-amino-1,3-dihydrospiro[indene-2,4′-piperidin]-1′-yl)-6-((cyclopropylmethyl)thio)pyrazin-2-yl)methanol] | ≤ 50 nM |
| N[C@H]1c2ccccc2C[C@]12CC[C@H](c1ccc(Sc3ccnc(Cl)c3Cl)nc1)CC2 [Example 280, (1s,1′R,4S)-4-(6-((2,3-dichloropyridin-4-yl)thio)pyridin-3-yl)-1′,3′-dihydrospiro[cyclohexane-1,2′-inden]-1′-amine] | ≤ 50 nM |
| COc1n[nH]c2nc(N3CCC4(CC3)Cc3ccccc3[C@H]4N)c(CO)nc12 [Example 158, {6-[(3S)-3-amino-1,3-dihydrospiro[indene-2,4′-piperidin]-1′-yl]-3-methoxy-1H-pyrazolo[3,4-b]pyrazin-5-yl}methanol] | ≤ 50 nM |
| N[C@@H]1c2ccccc2OC12CCN(c1nc3[nH]ncc3nc1CO)CC2 [Example 159, {6-[(3R)-3-amino-3H-spiro[1-benzofuran-2,4′-piperidin]-1′-yl]-1H-pyrazolo[3,4-b]pyrazin-5-yl}methanol] | ≤ 50 nM |
| Nc1nccc(Sc2ccc(N3CCC4(CC3)Cc3cc(F)ccc3[C@H]4N)cn2)c1Cl [Example 217] | ≤ 50 nM |
| C[C@@H](C(=O)N1CCC2(CC1)Cc1ccccc1[C@H]2N)c1ccc(F)cc1 (single isomer, unassigned) [Example 291] | > 10000 nM |
| N[C@@H]1c2ccccc2CC12CCN(c1cnc(N3CCC[C@H]3c3ccccc3)cn1)CC2 (racemic) [Example 165, (3S)-1′-{5-[(2S)-2-phenylpyrrolidin-1-yl]pyrazin-2-yl}-1,3-dihydrospiro[indene-2,4′-piperidin]-3-amine] | > 10000 nM |
| Cc1nc2c(ccn2-c2cccc3ncccc23)nc1N1CCC2(CC1)Cc1ccccc1[C@H]2N [Example 194, (3S)-1′-[3-methyl-5-(quinolin-5-yl)-5H-pyrrolo[2,3-b]pyrazin-2-yl]-1,3-dihydrospiro[indene-2,4′-piperidin]-3-amine] | ≤ 50 nM |

| Compound | IC50 |
| --- | --- |
| Nc1nc(N2CCC3(CC2)Cc2ccccc2[C@@H]3N)cnc1-c1cccc(Cl)c1Cl [Example 21, (3R)-1′-[6-amino-5-(2,3-dichlorophenyl)pyrazin-2-yl]-1,3-dihydrospiro[indene-2,4′-piperidin]-3-amine] | ≤ 50 nM |
| Nc1nccc(Sc2ccc(N3CCC4(CC3)Cc3ccccc3[C@H]4N)c(CO)n2)c1Cl [Example 258, {3-[(3S)-3-amino-1,3-dihydrospiro[indene-2,4′-piperidin]-1′-yl]-6-[(2-amino-3-chloropyridin-4-yl)sulfanyl]pyridin-2-yl}methanol] | ≤ 50 nM |
| Cc1n[nH]c2nc(N3CCC4(CC3)Cc3ccccc3[C@H]4N)c(CO)nc12 [Example 156, {6-[(3S)-3-amino-1,3-dihydrospiro[indene-2,4′-piperidin]-1′-yl]-3-methyl-1H-pyrazolo[3,4-b]pyrazin-5-yl}methanol] | ≤ 50 nM |
| Cc1c(NCc2cccnc2)ccnc1N1CCC2(CC1)Cc1ccccc1[C@H]2N [Example 199] | ≤ 50 nM |
| Nc1nccc(Sc2cnc(C34C[C@@H]5C[C@@]6(C[C@H](C3)N54)Oc3ccccc3[C@H]6N)cn2)c1Cl (stereo partly shown) [Example 232] | ≤ 50 nM |
| N[C@@H]1c2ccccc2CC12CCN(c1cnc(OCC3CC3)cn1)CC2 [Example 171, (3S)-1′-[5-(cyclopropylmethoxy)pyrazin-2-yl]-1,3-dihydrospiro[indene-2,4′-piperidin]-3-amine] | ≤ 50 nM |
| N[C@@H]1c2ccccc2CC12CCN(c1cnc(N3CCCC[C@H]3c3ccccc3)cn1)CC2 (racemic) [Example 176] | > 10000 nM |
| N[C@@H]1c2ccccc2CC12CCN(c1cnc3c(Oc4ccnc(Cl)c4Cl)n[nH]c3n1)CC2 [Example 126, (3S)-1′-{3-[(2,3-dichloropyridin-4-yl)oxy]-1H-pyrazolo[3,4-b]pyrazin-6-yl}-1,3-dihydrospiro[indene-2,4′-piperidin]-3-amine] | ≤ 50 nM |
| N[C@@H]1c2ccccc2CC12CCN(c1cnc(N3CCCc4ncccc43)cn1)CC2 [Example 146, (3S)-1′-[5-(1,2,3,4-tetrahydro-1,5-naphthyridin-1-yl)pyrazin-2-yl]-1,3-dihydrospiro[indene-2,4′-piperidin]-3-amine] | ≤ 50 nM |
| N[C@@H]1c2ccccc2CC12CCN(c1cnc(N3CCCC[C@@H]3c3ccccc3)cn1)CC2 (racemic) [Example 166, (S)-1′-(5-((R)-2-phenylpiperidin-1-yl)pyrazin-2-yl)-1,3-dihydrospiro[indene-2,4′-piperidin]-1-amine] | ≤ 50 nM |
| Cc1nc2c(N3CCC(F)(F)CC3)n[nH]c2nc1N1CCC2(CC1)Cc1ccccc1[C@H]2N [Example 186, (3S)-1′-[3-(4,4-difluoropiperidin-1-yl)-5-methyl-1H-pyrazolo[3,4-b]pyrazin-6-yl]-1,3-dihydrospiro[indene-2,4′-piperidin]-3-amine] | ≤ 50 nM |
| N[C@@H]1c2ccccc2CC12CCN(c1nccn3ccnc13)CC2 [Example 180] | 1000 to 10000 nM |
| N[C@@H]1c2ccccc2CC12CCN(c1cnc3c(-c4ccnc(Cl)c4Cl)n[nH]c3n1)CC2 [Example 70] | 50 to 1000 nM |
| Cn1ccc(Oc2n[nH]c3nc(N4CCC5(CC4)Cc4ccccc4[C@H]5N)cnc23)c(Cl)c1=O [Example 128, (S)-4-((6-(1-amino-1,3-dihydrospiro[indene-2,4′-piperidin]-1′-yl)-1H-pyrazolo[3,4-b]pyrazin-3-yl)oxy)-3-chloro-1-methylpyridin-2(H)-one] | ≤ 50 nM |
| Nc1nccc(Sc2n[nH]c3nc(N4CCC5(CC4)Cc4ccccc4[C@H]5N)cnc23)c1Cl [Example 86, (S)-1′-(3-((2-amino-3-chloropyridin-4-yl)thio)-1H-pyrazolo[3,4-b]pyrazin-6-yl)-1,3-dihydrospiro[indene-2,4′-piperidin]-1-amine] | ≤ 50 nM |
| N[C@@H]1c2ccccc2CC12CCN(C(=O)c1csc(-c3c(Cl)cccc3Cl)n1)CC2 [Example 286, (1S)-1′-[2-(2,6-dichlorophenyl)-1,3-thiazole-4-carbonyl]-1,3-dihydrospiro[indene-2,4′-piperidin]-1-amine] | ≤ 50 nM |
| N[C@H]1c2ccccc2CC12CCN(c1cnc3c(-c4ccncc4F)n[nH]c3n1)CC2 [Example 75] | ≤ 50 nM |
| Cc1c(N2CCCc3ccccc32)nc2sc(N3CCC4(CC3)Cc3ccccc3[C@H]4N)nn12 [Example 207] | 1000 to 10000 nM |
| N[C@@H]1c2ccccc2CC12CCN(c1cnc(SC3CCOCC3)cn1)CC2 [Example 185, (S)-1′-(5-((tetrahydro-2H-pyran-4-yl)thio)pyrazin-2-yl)-1,3-dihydrospiro[indene-2,4′-piperidin]-1-amine] | 1000 to 10000 nM |
| CN(C)C(=O)c1ccc2c(c1)[C@@H](N)C1(CCN(c3cnc4c(N5CCCc6ncccc65)n[nH]c4n3)CC1)C2 [Example 27] | ≤ 50 nM |
| N[C@H]1c2ccccc2C[C@]12CC=C(c1cnc3c(N4CCCc5ncccc54)n[nH]c3n1)CC2 [Example 174, (1R,1′R)-4-(3-(3,4-dihydro-1,5-naphthyridin-1(2H)-yl)-1H-pyrazolo[3,4-b]pyrazin-6-yl)-1′,3′-dihydrospiro[cyclohex[3]ene-1,2′-inden]-1′-amine] | ≤ 50 nM |
